Laboratory results published in patent US9029359B2, “Heteroaryl Btk inhibitors” (Biogen Idec MA, Inc., priority 2009, dated 2015).
pIC50: −log10 of the molar value.

The compounds below were run against T1, BTK (Homo sapiens, UniProt Q06187) (assay: In vitro BTK kinase assay: BTK-POLYGAT-LS ASSAY). Conditions: ATP 10 uM.
T1 construct: purchased Upstate 14-552
Assay type: biochemical
Procedure: In vitro BTK kinase assay: BTK-POLYGAT-LS ASSAY. The purpose of the BTK in vitro assay is to determine compound potency against BTK through the measurement of IC50. […] A 24 μL aliquot of a ATP/peptide master mix (final concentration; ATP 10 μM, polyGAT 100 nM) in kinase buffer (10 mM Tris-HCl pH 7.5, 10 mM MgCl2, 200 μM Na3VO4, 5 mM DTT, 0.01% Triton X-100, and 0.2 mg/ml Casein) is added to each well. […] The assay is incubated for 30 minutes before being stopped with 28 μL of a 50 mM EDTA solution. […] The plate is covered and incubated for 45 minutes at room temperature. Time resolved fluorescence (TRF) on Molecular Devices M5 (332 nm excitation; 488 nm emission; 518 nm fluorescein emission) is measured.

T1 sequence (Q06187 whole entry): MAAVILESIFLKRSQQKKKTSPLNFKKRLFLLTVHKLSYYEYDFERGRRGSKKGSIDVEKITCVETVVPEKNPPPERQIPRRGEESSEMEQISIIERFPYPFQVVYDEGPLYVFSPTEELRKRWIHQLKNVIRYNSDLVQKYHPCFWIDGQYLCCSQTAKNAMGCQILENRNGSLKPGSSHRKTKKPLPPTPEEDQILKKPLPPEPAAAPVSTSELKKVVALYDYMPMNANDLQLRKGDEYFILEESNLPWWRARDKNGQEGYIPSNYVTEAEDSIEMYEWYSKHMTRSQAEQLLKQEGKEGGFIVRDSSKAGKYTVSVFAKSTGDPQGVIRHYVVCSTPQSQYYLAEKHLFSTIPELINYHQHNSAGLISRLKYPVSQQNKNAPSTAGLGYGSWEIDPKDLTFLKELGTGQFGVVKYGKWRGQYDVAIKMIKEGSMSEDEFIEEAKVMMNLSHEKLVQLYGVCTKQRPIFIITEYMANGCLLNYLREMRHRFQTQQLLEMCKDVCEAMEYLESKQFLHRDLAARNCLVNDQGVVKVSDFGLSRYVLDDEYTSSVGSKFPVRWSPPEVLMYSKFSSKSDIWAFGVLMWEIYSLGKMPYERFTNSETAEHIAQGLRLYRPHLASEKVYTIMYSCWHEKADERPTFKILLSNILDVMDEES

Row | pIC50 | SMILES
1 | < 5.00 | Cc1cc(NCC(=O)NC2CCCN(c3ncnc4[nH]ccc34)C2)n(C(C)(C)C)n1 (centres unmarked) [Example 58, (N-(1-(7H-pyrrolo[2,3-d]pyrimidin-4-yl)piperidin-3-yl)-2-(1-tert-butyl-3-methyl-1H-pyrazol-5-ylamino)acetamide)]
2 | < 5.00 | O=C(CNc1cccnc1)NC1CCCN(c2ncnc3[nH]ccc23)C1 (centres unmarked) [Example 59, (N-(1-(7H-pyrrolo[2,3-d]pyrimidin-4-yl)piperidin-3-yl)-2-(pyridin-3-ylamino)acetamide)]
3 | 5.00 to 6.00 | Cn1ccc(-c2cccc(NCC(=O)NC3CCCN(c4ncnc5[nH]ccc45)C3)c2)n1 (centres unmarked) [Example 60]
4 | 5.00 to 6.00 | CN(C)c1cccc(NCC(=O)NC2CCCN(c3ncnc4[nH]ccc34)C2)c1 (centres unmarked) [Example 61, (N-(1-(7H-pyrrolo[2,3-d]pyrimidin-4-yl)piperidin-3-yl)-2-(3-(dimethylamino)phenylamino)acetamide)]
5 | 6.00 to 7.00 | O=C(CNc1ccc(F)c(F)c1)NC1CCCN(c2ncnc3[nH]ccc23)C1 (centres unmarked) [Example 62, (N-(1-(7H-pyrrolo[2,3-d]pyrimidin-4-yl)piperidin-3-yl)-2-(3,4-difluorophenylamino)acetamide)]
6 | > 7.00 | O=C(CNc1cc(F)cc(C(F)(F)F)c1)NC1CCCN(c2ncnc3[nH]ccc23)C1 (centres unmarked) [Example 63, (N-(1-(7H-pyrrolo[2,3-d]pyrimidin-4-yl)piperidin-3-yl)-2-(3-fluoro-5-(trifluoromethyl)phenylamino)acetamide)]
7 | 6.00 to 7.00 | Cc1c(NCC(=O)NC2CCCN(c3ncnc4[nH]ccc34)C2)cccc1C(F)(F)F (centres unmarked) [Example 64, (N-(1-(7H-pyrrolo[2,3-d]pyrimidin-4-yl)piperidin-3-yl)-2-(2-methyl-3-(trifluoromethyl)phenylamino)acetamide)]
8 | 6.00 to 7.00 | Cc1ccc(NCC(=O)NC2CCCN(c3ncnc4[nH]ccc34)C2)cc1C(F)(F)F (centres unmarked) [Example 65, (N-(1-(7H-pyrrolo[2,3-d]pyrimidin-4-yl)piperidin-3-yl)-2-(4-methyl-3-(trifluoromethyl)phenylamino)acetamide)]
9 | 5.00 to 6.00 | N#Cc1ccccc1NCC(=O)NC1CCCN(c2ncnc3[nH]ccc23)C1 (centres unmarked) [Example 66, (N-(1-(7H-pyrrolo[2,3-d]pyrimidin-4-yl)piperidin-3-yl)-2-(2-cyanophenylamino)acetamide)]
10 | 6.00 to 7.00 | O=C(CNc1ccc(F)cc1F)NC1CCCN(c2ncnc3[nH]ccc23)C1 (centres unmarked) [Example 67, (N-(1-(7H-pyrrolo[2,3-d]pyrimidin-4-yl)piperidin-3-yl)-2-(2,4-difluorophenylamino)acetamide)]
11 | > 7.00 | O=C(CNc1cc(F)cc(F)c1)NC1CCCN(c2ncnc3[nH]ccc23)C1 (centres unmarked) [Example 68, (N-(1-(7H-pyrrolo[2,3-d]pyrimidin-4-yl)piperidin-3-yl)-2-(3,5-difluorophenylamino)acetamide)]
12 | 5.00 to 6.00 | O=C(CNc1cc(C(F)(F)F)ccc1F)NC1CCCN(c2ncnc3[nH]ccc23)C1 (centres unmarked) [Example 69, (N-(1-(7H-pyrrolo[2,3-d]pyrimidin-4-yl)piperidin-3-yl)-2-(2-fluoro-5-(trifluoromethyl)phenylamino)acetamide)]
13 | 6.00 to 7.00 | O=C(CNc1cccc(C(F)(F)F)c1F)NC1CCCN(c2ncnc3[nH]ccc23)C1 (centres unmarked) [Example 70, (N-(1-(7H-pyrrolo[2,3-d]pyrimidin-4-yl)piperidin-3-yl)-2-(2-fluoro-3-(trifluoromethyl)phenylamino)acetamide)]
14 | 6.00 to 7.00 | O=C(CNc1cccc(F)c1F)NC1CCCN(c2ncnc3[nH]ccc23)C1 (centres unmarked) [Example 71, (N-(1-(7H-pyrrolo[2,3-d]pyrimidin-4-yl)piperidin-3-yl)-2-(2,3-difluorophenylamino)acetamide)]
15 | 5.00 to 6.00 | O=C(CNC1CCCC1)NC1CCCN(c2ncnc3[nH]ccc23)C1 (centres unmarked) [Example 72]
16 | < 5.00 | N#Cc1ccc(NCC(=O)NC2CCCN(c3ncnc4[nH]ccc34)C2)cc1C(F)(F)F (centres unmarked) [Example 73, (N-(1-(7H-pyrrolo[2,3-d]pyrimidin-4-yl)piperidin-3-yl)-2-(4-cyano-3-(trifluoromethyl)phenylamino)acetamide)]
17 | 5.00 to 6.00 | O=C(CNc1ccc(F)c(C(F)(F)F)c1)NC1CCCN(c2ncnc3[nH]ccc23)C1 (centres unmarked) [Example 74, (N-(1-(7H-pyrrolo[2,3-d]pyrimidin-4-yl)piperidin-3-yl)-2-(4-fluoro-3-(trifluoromethyl)phenylamino)acetamide)]
18 | 5.00 to 6.00 | O=C(CNc1cccc2cn[nH]c12)NC1CCCN(c2ncnc3[nH]ccc23)C1 (centres unmarked) [Example 75]
19 | 6.00 to 7.00 | O=C(CNc1cccc2[nH]ncc12)NC1CCCN(c2ncnc3[nH]ccc23)C1 (centres unmarked) [Example 76, (2-(1H-indazol-4-ylamino)-N-(1-(7H-pyrrolo[2,3-d]pyrimidin-4-yl)piperidin-3-yl)acetamide)]

Row | pIC50 | SMILES
20 | 6.00 to 7.00 | O=C(CNc1cccc(-n2cccn2)c1)NC1CCCN(c2ncnc3[nH]ccc23)C1 (centres unmarked) [Example 77, (2-(3-(1H-pyrazol-1-yl)phenylamino)-N-(1-(7H-pyrrolo[2,3-d]pyrimidin-4-yl)piperidin-3-yl)acetamide)]
21 | 5.00 to 6.00 | Cn1ncc2c(NCC(=O)NC3CCCN(c4ncnc5[nH]ccc45)C3)cccc21 (centres unmarked) [Example 78, (N-(1-(7H-pyrrolo[2,3-d]pyrimidin-4-yl)piperidin-3-yl)-2-(1-methyl-1H-indazol-4-ylamino)acetamide)]
22 | < 5.00 | O=C(CNc1ccn(-c2ccccc2)n1)NC1CCCN(c2ncnc3[nH]ccc23)C1 (centres unmarked) [Example 79, (N-(1-(7H-pyrrolo[2,3-d]pyrimidin-4-yl)piperidin-3-yl)-2-(1-phenyl-1H-pyrazol-3-ylamino)acetamide)]
23 | 5.00 to 6.00 | Cn1ccc(NCC(=O)NC2CCCN(c3ncnc4[nH]ccc34)C2)n1 (centres unmarked) [Example 80, (N-(1-(7H-pyrrolo[2,3-d]pyrimidin-4-yl)piperidin-3-yl)-2-(1-methyl-1H-pyrazol-3-ylamino)acetamide)]
24 | 5.00 to 6.00 | O=C(CNc1cccc2cccnc12)NC1CCCN(c2ncnc3[nH]ccc23)C1 (centres unmarked) [Example 81, (N-(1-(7H-pyrrolo[2,3-d]pyrimidin-4-yl)piperidin-3-yl)-2-(quinolin-8-ylamino)acetamide)]
25 | 6.00 to 7.00 | O=C(CNc1cccc(SC(F)(F)F)c1)NC1CCCN(c2ncnc3[nH]ccc23)C1 (centres unmarked) [Example 82, (N-(1-(7H-pyrrolo[2,3-d]pyrimidin-4-yl)piperidin-3-yl)-2-(3-(trifluoromethylthio)phenylamino)acetamide)]
26 | 5.00 to 6.00 | O=C(CNc1cccc(N2CCOCC2)c1)NC1CCCN(c2ncnc3[nH]ccc23)C1 (centres unmarked) [Example 83, (N-(1-(7H-pyrrolo[2,3-d]pyrimidin-4-yl)piperidin-3-yl)-2-(3-morpholinophenylamino)acetamide)]
27 | 6.00 to 7.00 | Cc1cccc(NCC(=O)NC2CCCN(c3ncnc4[nH]ccc34)C2)c1C (centres unmarked) [Example 84, (N-(1-(7H-pyrrolo[2,3-d]pyrimidin-4-yl)piperidin-3-yl)-2-(2,3-dimethylphenylamino)acetamide)]
28 | 5.00 to 6.00 | O=C(CNc1ccccc1)N(Cc1ccccc1)C1CCCN(c2ncnc3[nH]ccc23)C1 (centres unmarked) [Example 86, (N-(1-(7H-pyrrolo[2,3-d]pyrimidin-4-yl)piperidin-3-yl)-N-benzyl-2-(phenylamino)acetamide)]
29 | 6.00 to 7.00 | O=C(CNc1ccccc1)N(CCc1ccccc1)C1CCCN(c2ncnc3[nH]ccc23)C1 (centres unmarked) [Example 87, (N-(1-(7H-pyrrolo[2,3-d]pyrimidin-4-yl)piperidin-3-yl)-N-phenethyl-2-(phenylamino)acetamide)]
30 | 5.00 to 6.00 | O=C(CNc1ccccc1)N(CC1CCCCC1)C1CCCN(c2ncnc3[nH]ccc23)C1 (centres unmarked) [Example 88, (N-(1-(7H-pyrrolo[2,3-d]pyrimidin-4-yl)piperidin-3-yl)-N-(cyclohexylmethyl)-2-(phenylamino)acetamide)]
31 | 5.00 to 6.00 | O=C(CNC(=O)c1ccccc1Cl)NC1CCCN(c2ncnc3[nH]ccc23)C1 (centres unmarked) [Example 92, (N-(2-(1-(7H-pyrrolo[2,3-d]pyrimidin-4-yl)piperidin-3-ylamino)-2-oxoethyl)-2-chlorobenzamide)]
32 | 5.00 to 6.00 | O=C(CNC(=O)c1cccc(Cl)c1)NC1CCCN(c2ncnc3[nH]ccc23)C1 (centres unmarked) [Example 93, (N-(2-(1-(7H-pyrrolo[2,3-d]pyrimidin-4-yl)piperidin-3-ylamino)-2-oxoethyl)-3-chlorobenzamide)]
33 | 5.00 to 6.00 | O=C(CNC(=O)c1ccc(Cl)cc1)NC1CCCN(c2ncnc3[nH]ccc23)C1 (centres unmarked) [Example 94, (N-(2-(1-(7H-pyrrolo[2,3-d]pyrimidin-4-yl)piperidin-3-ylamino)-2-oxoethyl)-4-chlorobenzamide)]
34 | 6.00 to 7.00 | CC(C)(C)c1ccc(C(=O)NCC(=O)NC2CCCN(c3ncnc4[nH]ccc34)C2)cc1 (centres unmarked) [Example 95, (N-(2-(1-(7H-pyrrolo[2,3-d]pyrimidin-4-yl)piperidin-3-ylamino)-2-oxoethyl)-4-tert-butylbenzamide)]
35 | 5.00 to 6.00 | O=C(Cc1ccccc1)NCC(=O)NC1CCCN(c2ncnc3[nH]ccc23)C1 (centres unmarked) [Example 96, (N-(1-(7H-pyrrolo[2,3-d]pyrimidin-4-yl)piperidin-3-yl)-2-(2-phenylacetamido)acetamide)]
36 | 6.00 to 7.00 | O=C(CNC(=O)c1cccc2ccccc12)NC1CCCN(c2ncnc3[nH]ccc23)C1 (centres unmarked) [Example 97, (N-(2-(1-(7H-pyrrolo[2,3-d]pyrimidin-4-yl)piperidin-3-ylamino)-2-oxoethyl)-1-naphthamide)]
37 | 6.00 to 7.00 | O=C(CNC(=O)c1ccc2ccccc2c1)NC1CCCN(c2ncnc3[nH]ccc23)C1 (centres unmarked) [Example 98]
38 | 5.00 to 6.00 | O=C(CNC(=O)C1CCCCC1)NC1CCCN(c2ncnc3[nH]ccc23)C1 (centres unmarked) [Example 99, (N-(2-(1-(7H-pyrrolo[2,3-d]pyrimidin-4-yl)piperidin-3-ylamino)-2-oxoethyl)cyclohexanecarboxamide)]
